“And” between values parts separate entries of the source, which are not always exact repeats. Equal entries are not always repeated.
Conditions: Liquid; for vapor or sublimation pressure: low residence time flow method

Oc1ccccc1O [1,2-benzenediol]
Conditions | vapor or sublimation pressure
511.3 K | 81.47 kPa
535.7 K | 147 kPa
547 K | 187.4 kPa
577.6 K | 349.1 kPa
595.6 K | 487.9 kPa
597.3 K | 499.4 kPa
621.8 K | 742.9 kPa
640.1 K | 988.9 kPa
640.9 K | 992.8 kPa
692.7 K | 1996 kPa and 1995 kPa
711.5 K | 2496 kPa
727.5 K | 2993 kPa
727.9 K | 2997 kPa
753.5 K | 4007 kPa
754.8 K | 3993 kPa

Oc1cccc(O)c1 [1,3-benzenediol]
Conditions | Critical pressure [kPa] | Critical temperature [K] | vapor or sublimation pressure [kPa]
546.7 K | – | – | 84.54
582.6 K | – | – | 192.6
631.7 K | – | – | 494.8
675.9 K | – | – | 994.4
728.6 K | – | – | 1994
790.6 K | – | – | 3994
813.7 K | – | – | 4999
831.3 K | – | – | 5995
Low residence time flow calorimetry | 6240 | – | –
Low residence time flow method | – | 836 | –

OCCCCCCO [1,6-hexanediol]
Conditions | Critical pressure [kPa] | Critical temperature [K] | vapor or sublimation pressure [kPa]
523.2 K | – | – | 93.33
552.8 K | – | – | 199.3
597.1 K | – | – | 500.6
637.1 K | – | – | 1001
685.1 K | – | – | 2007
717.6 K | – | – | 3024
740 K | – | – | 4012
740.4 K | – | – | 4054
Low residence time flow calorimetry | 4080 | – | –
Low residence time flow method | – | 740.8 | –

C1CNCCN1 [piperazine]
Conditions | Critical pressure [kPa] | Critical temperature [K] | vapor or sublimation pressure [kPa]
445.2 K | – | – | 189.5
471.6 K | – | – | 343.6
488.9 K | – | – | 492.3
528.1 K | – | – | 992.6
573.6 K | – | – | 1994
629.7 K | – | – | 3997
649.3 K | – | – | 4994
653.7 K | – | – | 5243
655 K | – | – | 5348
Low residence time flow calorimetry | 5420 | 656.3 | –
